Laboratory results taken from patent publication US12358954B2, “Capsid-modified rAAV vector compositions and methods therefor” (priority 2012, dated 2025).

Experiments:
[1] = system: non-canonical NF-κB pathway (p100, p52); assay: Western blot of NF-κB pathway components in HeLa cells; type: cell-based, human
Excerpt: Western Blot Analyses. Homogenized lysates of the cell pellets from ˜2×10^6 HeLa cells or DCs, mock or pre-treated with the optimal concentration of NF-κB activators or inhibitors were used for sample preparation. Whole cell proteins were isolated using the RIPA lysis buffer (Sigma-Aldrich Co.) and cytoplasmic and nuclear proteins were extracted using a commercial kit (NE-PER Extraction Reagent Kit, Pierce Biotech, Rockford, Ill., USA) as per the manufacturer's protocol in the presence of a protease inhibitor cocktail (Halt™ Protease Inhibitor Cocktail Kit, Pierce Biotech). The protein extracts were boiled for 5 min under reducing conditions [SDS-sample buffer containing 62.5 mM Tris-HCl (pH 6.8 at 25° C.), 2% wt./vol. SDS, 10% glycerol, 50 mM DTT, 0.01% wt./vol. bromo-phenol blue (Cell Signaling Technology, Inc.)] and stored at −86° C. until further analysis. Equal volumes of samples were run on 4-15% SDS-PAGE (Bio-Rad, Hercules, Calif., USA). […] The intensity of the protein bands was measured with Adobe Photoshop CS3 Software® and normalized to proteins levels from the housekeeping gene products used as loading controls.

HeLa cells = assay: AAV-EGFP transduction of HeLa cells in the presence of NF-κB modulators; type: cell-based, human
Description: Recombinant AAV Vector Transduction Assays in Vitro. Optimal concentration of NF-κB-modulating compounds was determined by a cell viability assay with tenfold-dilutions from the IC50 or were used as described previously (Wu and Miyamoto, 2008; Kumar et al., 2008). VP16 or Bay11 (10 or 5 μM, final concentration), and PDTC (50 or 25 μM final concentration) were used either alone or in activator/inhibitor combinations. For transduction experiments, approximately 1×10^5 HeLa cells were either pre-treated with these compounds 24 hrs prior to vector infection. Cells were transduced with 500 or 2,000 vector genomes (vgs) per cell of recombinant WT-AAV or TM-AAV vectors encoding the EGFP transgene as described previously (Markusic et al., 2010). After 7 days of culture, primary human dendritic cells were transduced with AAV vectors at 2000 vgs/cell and incubated for 48 hrs. Transgene expression was assessed as total area of green fluorescence (pixel^2) per visual field (mean±SD), or by flow cytometry. Analysis of variance (ANOVA) was used to compare between test results and the control and they were determined to be statistically significant.

[2] = system: pro-inflammatory cytokines and chemokines; assay: Gene-expression analysis of innate immune response in liver by RT-PCR; type: in vivo, C57BL/6J mice
Description: Recombinant AAV Vector Transduction Studies in Vivo. Groups of 6-weeks old normal C57BL/6J mice (Jackson Laboratories, Bar Harbor, Me., USA) were administered intra-peritoneally, with a single dose (20 mg/kg) of NF-κB inhibitor Bay11, in a 200-μL volume diluted in DMSO (day 0). Animals injected with only the DMSO carrier solvent were considered as baseline (mock) group (n=75) and animals injected with Bay11 were the test group (n=75). At this point, the animals from mock and Bay11 groups were randomized to receive either phosphate buffered saline (PBS, pH 7.4) or WT-AAV or TM-AAV vectors (n=25 mice each group). On day 1, ˜1×10^11 viral genome (vg) particles of WT-AAV2-EGFP or TM-AAV2-EGFP vectors or PBS were administered intravenously via the tail vein. To measure the modulation of immune response to AAV, 5 animals each from PBS-, WT-AAV-, or TM-AAV vector-injected groups were sacrificed by carbon-dioxide inhalation at different time points post-vector administration (2, 6, 10, 24 hrs and day 10). Hepatic lobes were collected, cross-sectioned and mounted on slides to study the effect of Bay11 on AAV-mediated EGFP expression (from day 10 mice). […]
Gene-Expression Analysis of Innate Immune Response by RT-PCR Assay. […] Data were captured and analyzed using an ABI Prism 7500 Sequence Detection System with v1.1 Software (Applied Biosystems). The baseline was determined automatically for the 18S rRNA and for other genes. Thresholds were determined manually for all genes. Gene expression was measured by the comparative threshold cycle (Ct) method. The parameter threshold cycle (Ct) was defined as the cycle number at which the reporter fluorescence generated by the cleavage of the probe passed a fixed threshold above baseline. […] Relative gene expression was determined for each group of treated and untreated animals and values >2.6 and <0.38 were considered as significant up-regulations and down-regulations between the groups and was calculated by assessing the variability in the 96 well plates used to measure specific gene expression.

Cc1ccc(S(=O)(=O)/C=C/C#N)cc1 [Bay11, Bay11-7082]
AAV-induced increase of p100 and p52 [1]: ablated
AAV vector-mediated EGFP expression, fold augmentation (HeLa cells; HeLa, scAAV-EGFP): totally ablated
VP16-mediated augmented transgene expression (HeLa cells; activator/inhibitor combination): completely ablated
levels of pro-inflammatory cytokines or chemokines (IL-1α, IL-6, TNFα, IL-12α, KC, RANTES) in liver ([2]; Bay11 20 mg/kg i.p. 12 hrs prior to vector, 2 hrs post-vector): significantly reduced
decrease in AAV vector-induced production of pro-inflammatory cytokines and chemokines ([2]; Bay11 prior to gene transfer, C57BL/6 mice): up to 7 fold
up-regulation of type I interferon expression by WT-AAV and TM-AAV vectors ([2]; mouse, in vivo): unaffected
